Tests used:
SW48 colon cancer cells = test: Human tumor xenograft in vivo, SW48; conditions: Mus musculus, 30 mg/kg ip, mice, read-out: % Inhibition (relative to vehicle control) SW48
Protocol: (§1) Eight to ten week old female BCD1 mice (Taconic Labs, Great Barrington, N.Y.) were injected subcutaneously in the flank area with 2×10^6 preconditioned HCT116 human colorectal carcinoma cells, SW48 colon cancer cells, and A549 lung cancer cells. Preconditioning of these cells was done by a minimum of three consecutive tumor transplantations in the same strain of nude mice. Subsequently, tumor fragments of approximately 30 mgs were excised and implanted subcutaneously in mice, in the left flank area, under Forene anesthesia (Abbott Labs, Geneva, Switzerland). When the tumors reached a mean volume of 100 mm^3, the mice were treated intraperitoneally by daily injection, with a solution of the histone deacetylase inhibitor in DMSO, at a starting dose of 10 mg/kg. The optimal dose of the HDAC inhibitor was established by dose response experiments according to standard protocols. Tumor volume was calculated every second day post infusion according to standard methods (e.g., Meyer et al., Int. J. Cancer 43: 851-856 (1989)).

[1] = test system: HCT116 human colorectal carcinoma cells; test: Human tumor xenograft in vivo, HCT116; conditions: Mus musculus, HCT-116; 30 mg/kg ip, mice; read-out: % Inhibition (relative to vehicle control) HCT116
Protocol: as §1

Human HDAC-1 = Human HDAC-1 (Homo sapiens, UniProt Q13547); test: HDAC-1 enzymatic inhibition, Assay 2 (Boc-Lys(Ac)-AMC, Fluor-de-Lys); assay type: biochemical; conditions: Assay 2: Boc-Lys(Ac)-AMC substrate, fluorescence; read-out: HDAC1 IC50
Chain of Human HDAC-1 (Q13547 whole entry): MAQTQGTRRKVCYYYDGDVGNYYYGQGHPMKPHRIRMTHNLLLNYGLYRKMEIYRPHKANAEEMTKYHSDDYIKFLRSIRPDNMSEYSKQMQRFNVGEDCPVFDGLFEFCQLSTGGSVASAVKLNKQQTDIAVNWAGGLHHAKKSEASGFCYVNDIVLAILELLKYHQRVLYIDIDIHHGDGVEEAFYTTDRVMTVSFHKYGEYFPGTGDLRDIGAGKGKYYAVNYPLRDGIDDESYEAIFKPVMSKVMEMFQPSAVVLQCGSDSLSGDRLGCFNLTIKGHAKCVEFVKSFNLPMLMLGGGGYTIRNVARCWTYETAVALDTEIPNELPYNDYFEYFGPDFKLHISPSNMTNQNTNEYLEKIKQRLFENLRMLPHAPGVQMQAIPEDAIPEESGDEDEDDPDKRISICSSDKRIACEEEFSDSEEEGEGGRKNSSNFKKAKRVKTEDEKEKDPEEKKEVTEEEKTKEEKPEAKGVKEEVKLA
Protocol: Assay 2. The following protocol was also used to assay the compounds of the invention. In the assay, the buffer used was 25 mM HEPES, pH 8.0, 137 mM NaCl, 2.7 mM KCl, 1 mM MgCl2 and the substrate was Boc-Lys(Ac)-AMC in a 50 mM stock solution in DMSO. The enzyme stock solution was 4.08 μg/mL in buffer. The compounds were pre-incubated (2 μl in DMSO diluted to 13 μl in buffer for transfer to assay plate) with enzyme (20 μl of 4.08 μg/ml) for 10 minutes at room temperature (35 μl pre-incubation volume). The mixture was pre-incubated for 5 minutes at room temperature. The reaction was started by bringing the temperature to 37° C. and adding […] substrate. Total reaction volume was 50 μl. The reaction was stopped after 20 minutes by addition of 50 μl developer, prepared as directed by Biomol (Fluor-de-Lys developer, Cat. # KI-105). A plate was incubated in the dark for 10 minutes at room temperature before reading (λEx=360 nm, λEm=470 nm, Cutoff filter at 435 nm).
(§2) Assay 1 was used to measure HDAC activity of compounds 10c, 13e, 16d, 26b, 44, 47, 61a, 61b, 63, 134, 138, and 308. Assay 2 was used to measure HDAC activity of compounds 361, 366, 367, 368, 369, 370, 371, 372, 373, 374, 375, 376, 377, and 378. In Table 14, “a” indicates activity of ≦0.1 μM, “b” indicates activity of ≦1 μM, “c” indicates activity of ≦5 μM, and “d” indicates activity of >5 μm. For the H4-Ac T24 EC vs. MS-275 assay in Table 14, “u” indicates less than 1, “v” indicates 1, and “w” indicates greater than 1. For the H3 Ac t24 assay in Table 14, “x” indicates activity of ≦1 μM, “y” indicates activity of ≦10 μM, and “z” indicates activity of ≦20 μM.

HCT116 cells = test: MTT assay; assay type: cell-based; conditions: Homo sapiens, HCT-116, 72 hours
Protocol: HCT116 cells (2000/well) were plated into 96-well tissue culture plates one day before compound treatment. Compounds at various concentrations were added to the cells. The cells were incubated for 72 hours at 37° C. in 5% CO2 incubator. MTT (3-[4,5-dimethylthiazol-2-yl]-2,5diphenyl tetrazolium bromide, Sigma) was added at a final concentration of 0.5 mg/ml and incubated with the cells for 4 hours before one volume of solubilization buffer (50% N,N-dimethylformamide, 20% SDS, pH 4.7) was added onto the cultured cells. After overnight incubation, solubilized dye was quantified by colorimetric reading at 570 nM using a reference at 630 nM using an MR700 plate reader (Dynatech Laboratories Inc.). OD values were converted to cell numbers according to a standard growth curve of the relevant cell line. The concentration which reduces cell numbers to 50% of that of solvent treated cells is determined as MTT IC50. In Table 14, “a” indicates activity of ≦0.1 μM, “b” indicates activity of ≦1 μM, and “c” indicates activity of ≦5 μM.

[2] = molecular target: T1, cloned recombinant human HDAC-1 enzyme (Homo sapiens, UniProt Q13547); test: HDAC-1 enzymatic inhibition, Assay 1 ([3H]-acetylated histone substrate); assay type: biochemical; conditions: Assay 1: [3H]-labeled acetylated histone substrate, recombinant hHDAC-1
T1 construct: made in house; host or cells: Baculovirus insect cell expression system
T1 sequence (Q13547 whole entry): as above
Protocol: Assay 1. HDAC inhibitors were screened against a cloned recombinant human HDAC-1 enzyme expressed and purified from a Baculovirus insect cell expression system. For deacetylase assays, 20,000 cpm of the [^3H]-metabolically labeled acetylated histone substrate (M. Yoshida et al., J. Biol. Chem. 265(28): 17174-17179 (1990)) was incubated with 30 μg of the cloned recombinant hHDAC-1 for 10 minutes at 37° C. The reaction was stopped by adding acetic acid (0.04 M, final concentration) and HCl (250 mM, final concentration). The mixture was extracted with ethyl acetate and the released [^3H]-acetic acid was quantified by scintillation counting. For inhibition studies, the enzyme was preincubated with compounds at 4° C. for 30 minutes prior to initiation of the enzymatic assay. IC50 values for HDAC enzyme inhibitors were determined by performing dose response curves with individual compounds and determining the concentration of inhibitor producing fifty percent of the maximal inhibition.
as §2

[3] = test system: Histone H4 acetylation in T24 human bladder cancer cells; test: Histone H4 acetylation in whole cells by immunoblots; assay type: cell-based; conditions: ratio of EC50 of compound to EC50 of control MS-275, 16 h
Protocol: T24 human bladder cancer cells growing in culture were incubated with HDAC inhibitors for 16 h. Histones were extracted from the cells after the culture period as described by M. Yoshida et al. (J. Biol. Chem. 265(28): 17174-17179 (1990)). […] of total histone protein was loaded onto SDS/PAGE and transferred to nitrocellulose membranes. Membranes were probed with polyclonal antibodies specific for acetylated histone H-4 (Upstate Biotech Inc.), followed by horse radish peroxidase conjugated secondary antibodies (Sigma). Enhanced Chemiluminescence (ECL) (Amersham) detection was performed using Kodak films (Eastman Kodak). Acetylated H-4 signal was quantified by densitometry. Data are presented as the ratio of the concentration effective for […] the acetylated H-4 signal by 50% (EC50) using the indicated compound of the invention to a control compound, MS-275. If the indicated ratio is 1, then the compound of the invention is as effective as the MS-275 control compound. […] Further information regarding the MS-275 compound can be found in Suzuki et al., J. Med. Chem. 1999, pp. 3001-3003.

Row | Structure (SMILES) | inhibition in vivo at 30 mg/kg (SW48 colon cancer cells) [%] | inhibition in vivo at 30 mg/kg [1] [%] | IC50 (Human HDAC-1) [nM] | IC50 (HCT116 cells) [nM] | IC50 [2] [nM] | H4-Ac T24 EC vs. MS-275 [3]
1 | Nc1ccccc1NC(=O)c1ccc(CNc2nccc(-c3nccs3)n2)cc1 [26c, N-(2-Amino-phenyl)-4-[(4-thiazol-2-yl-pyrimidin-2-ylamino)-methyl]-benzamide] | 89.5 | 88 | – | – | – | –
2 | Nc1ccccc1NC(=O)c1ccc(N2CC[C@H](Oc3ccc(Oc4ccccc4)cc3)C2)cc1 [compound 376, (S)—N-(2-Aminophenyl)-4-(3-(4-phenoxyphenoxy)pyrrolidin-1-yl)benzamide] | – | – | 1000 to 5000 | 1000 to 5000 | – | –
3 | CSc1nc(NCc2ccc(C(=O)Nc3ccccc3N)cc2)cc(-c2cccnc2)n1 [61a, N-(2-Amino-phenyl)-4-[(2-methylsulfanyl-6-pyridin-3-yl-pyrimidin-4-ylamino)-methyl]-benzamide] | – | – | – | ≤ 100 | 1000 to 5000 | v (“v” indicates 1)
4 | Nc1ccccc1NC(=O)c1ccc(N2CC[C@H](Oc3ccccc3)C2)cc1 [compound 371, (S)—N-(2-Aminophenyl)-4-(3-phenoxypyrrolidin-1-yl)benzamide] | – | – | 100 to 1000 | 100 to 1000 | – | –
5 | Nc1ccccc1NC(=O)c1ccc(N2CC[C@H](Oc3ccc(C(=O)O)cc3)C2)cc1 [compound 373, (S)-4-(1-(4-(2-Aminophenylcarbamoyl)phenyl)pyrrolidin-3-yloxy)benzoic acid] | – | – | 100 to 1000 | > 5000 | – | –
6 | Nc1ccccc1NC(=O)c1ccc(CNc2nccc(-c3ccc(F)c(F)c3)n2)cc1 [16d, N-(2-Amino-phenyl)-4-{[4-(3,4-difluoro-phenyl)-pyrimidin-2-ylamino]-methyl}-benzamide] | – | – | – | 100 to 1000 | 100 to 1000 | v (“v” indicates 1)
7 | COC(=O)c1ccc(O[C@H]2CCN(c3ccc(C(=O)Nc4ccccc4N)cc3)C2)cc1 [compound 372, (S)-Methyl-4-(1-(4-(2-aminophenylcarbamoyl)phenyl)pyrrolidin-3-yloxy)benzoate] | – | – | ≤ 100 | 100 to 1000 | – | –
8 | COc1cccc(CCNc2ccnc(NCc3ccc(C(=O)Nc4ccccc4N)cc3)n2)c1 [10c, N-(2-Amino-phenyl)-4-({4-[2-(3-methoxy-phenyl)-ethylamino]-pyrimidin-2-ylamino}-methyl)-benzamide] | – | – | – | 100 to 1000 | 1000 to 5000 | v (“v” indicates 1)
9 | Nc1ccccc1NC(=O)c1ccc(N2CC[C@H](Oc3ccc([N+](=O)[O-])cc3)C2)cc1 [compound 377, (S)—N-(2-Aminophenyl)-4-(3-(4-nitrophenoxy)pyrrolidin-1-yl)benzamide] | – | – | 100 to 1000 | 100 to 1000 | – | –
10 | Nc1ccccc1NC(=O)c1ccc(CNc2ncc(-c3cccnc3)cn2)cc1 [13e, N-(2-Amino-phenyl)-4-[(5-pyridin-3-yl-pyrimidin-2-ylamino)-methyl]-benzamide] | – | – | – | 100 to 1000 | 1000 to 5000 | v (“v” indicates 1)
11 | Nc1ccccc1NC(=O)c1ccc(CNc2nc3ccc(O)cc3s2)cc1 [compound 134, N-(2-Amino-phenyl)-4-[(6-hydroxy-benzothiazol-2-ylamino)-methyl]-benzamide] | – | – | – | 100 to 1000 | 1000 to 5000 | u (“u” indicates less than 1)
12 | Nc1ccccc1NC(=O)c1ccc(CNc2cncc(-c3cccnc3)n2)cc1 [compound 63, N-(2-Amino-phenyl)-4-[(6-pyridin-3-yl-pyrazin-2-ylamino)-methyl]-benzamide] | – | – | – | 100 to 1000 | 1000 to 5000 | v (“v” indicates 1)
13 | Nc1ccccc1NC(=O)c1ccc(CNc2ccnc(-c3cccnc3)n2)cc1 [compound 47, N-(2-Amino-phenyl)-4-[(2-pyridin-3-yl-pyrimidin-4-ylamino)-methyl]-benzamide] | – | – | – | 100 to 1000 | 1000 to 5000 | u (“u” indicates less than 1)
14 | Nc1ccccc1NC(=O)c1ccc(CNc2nccc(-c3ccc(CN4CCOCC4)cc3)n2)cc1 [compound 44, N-(2-Amino-phenyl)-4-{[4-(4-morpholin-4-ylmethyl-phenyl)-pyrimidin-2-ylamino]-methyl}-benzamide] | – | – | – | ≤ 100 | 1000 to 5000 | v (“v” indicates 1)
15 | COc1cc(NCc2ccc3oc(C(=O)Nc4ccccc4N)cc3c2)cc(OC)c1OC [compound 308, 5-[(3,4,5-Trimethoxy-phenylamino)-methyl]-benzofuran-2-carboxylic acid (2-amino-phenyl)-amide] | – | – | – | 100 to 1000 | 1000 to 5000 | w (“w” indicates greater than 1)
16 | Nc1ccccc1NC(=O)c1ccc(N2CC[C@@H](Oc3cccnc3)C2)cc1 [compound 368, (R)—N-(2-Aminophenyl)-4-(3-(pyridin-3-yloxy)pyrrolidin-1-yl)benzamide] | – | – | 100 to 1000 | 100 to 1000 | – | –
17 | Nc1ccccc1NC(=O)c1ccc(N2CC[C@@H](Nc3ccccc3)C2)cc1 [compound 370, (R)—N-(2-Aminophenyl)-4-(3-(phenylamino)pyrrolidin-1-yl)benzamide] | – | – | 1000 to 5000 | 1000 to 5000 | – | –
18 | Nc1ccccc1NC(=O)c1ccc(CNc2cc(-c3cccnc3)ncn2)cc1 [61b, N-(2-Amino-phenyl)-4-[(6-pyridin-3-yl-pyrimidin-4-ylamino)-methyl]-benzamide] | – | – | – | ≤ 100 | 1000 to 5000 | u (“u” indicates less than 1)
